≈ marks a conversion by molar mass, not a printed value.
What was measured:
TP53 = test: qRT-PCR, TP53 in HCT116 cells; format: cell-based, human; settings: versus negative samples
Protocol: RNA was extracted from pancreas, prostate, lung and liver cell lines using a total RNA purification kit (Qiagen, Hilden, Germany) according to the manufacturer's instructions. An aliquot of RNA was diluted in RNase-free water to estimate RNA quantity. Aliquots were used immediately for reverse transcription (RT). cDNA synthesis was performed on extracted RNA, which was treated with DNase (Invitrogen, Germany) to remove any possible DNA contamination. The DNase-treated RNA was reverse transcribed into first-strand cDNA using the RevertAid First Strand cDNA Synthesis kit (Fermantas) according to the manufacturer's instructions. Determination of the pancreas, prostate, lung and liver cell line cDNA copy number was carried out using StepOne™ Real-Time PCR System from Applied Biosystems (Thermo Fisher Scientific, Waltham, MA USA). Gene expressions were detected by real-time PCR, which was performed using the Rotor-Gene Q system (Qiagen Company). A 25 µL reaction mixture consisted of 12.5 µL SYBR® Premix Ex TaqTM (TaKaRa, Biotech. Co. Ltd.), 0.5 µL of each primer (10 PMole) (Table 1), 1 µL cDNA (50 ng) and 10.5 µL RNase free water. The optimum amplification conditions were chosen empirically according to each tested gene. Generally, the amplification conditions include initial incubation (95.0 °C for 3 min), then 40 cycles of amplification with denaturation (95.0 °C for 15 s), annealing (55.0 °C for 30 s) and extension (72.0 °C for 30 s) steps then 71 cycles which started at 60.0 °C and then increased about 0.5 °C every 10 s up to 95.0 °C. Mean cycle threshold (Ct) values of triplicate samples are used for analysis. The Ct value indicates the fractional cycle number at which the amount of amplified target reaches a fixed threshold. Data from real-time PCR were analyzed using 2^−∆∆Ct method[38]–[40]. Data were represented as the fold change in target gene expression normalized to a House-Keeping gene (HKG) and relative to the control. β-actin was used as a HKG to normalize input RNA amount, RNA quality and reverse transcription efficiency.

Escherichia coli = test: Agar well diffusion, E. coli; format: cell-based; settings: Escherichia coli, read-out: Inhibition zones diameter
Bacillus mycoides = test: microbe, parasite or virus in culture; format: cell-based

Q: `Cc1ccc(S(=O)(=O)NC(=O)Nc2ccc(C(F)(F)F)cc2)cc1` [Compound 7, 4-Methyl-N-[(4-{trifluoromethyl}phenyl)carbamoyl]benzenesulfonamide] was tested. Which “TP53 gene expression level” value (TP53) did it give?
A: suppression

Q: What about the zone of inhibition at 10000 µg/mL (Escherichia coli) of the same molecule?
A: 30 ± 0.74 mm

Q: What about the zone of inhibition at 4.88 µg/mL (Bacillus mycoides; read-out: Inhibition zone) of the same molecule?
A: 0 mm

Q: And the zone of inhibition at 9.75 µg/mL (Bacillus mycoides; read-out: Inhibition zone)?
A: 15 mm

Q: And the zone of inhibition at 19.5 µg/mL (Bacillus mycoides; read-out: Inhibition zone)?
A: 15 mm

Q: And the zone of inhibition at 39.1 µg/mL (Bacillus mycoides; read-out: Inhibition zone)?
A: 16 mm

Q: What about the zone of inhibition at 78.1 µg/mL (Bacillus mycoides; read-out: Inhibition zone) of the same molecule?
A: 16 mm

Q: And the zone of inhibition at 156.3 µg/mL (Bacillus mycoides; read-out: Inhibition zone)?
A: 18 mm

Q: And the zone of inhibition at 312.5 µg/mL (Bacillus mycoides; read-out: Inhibition zone)?
A: 20 mm

Q: What about the zone of inhibition at 625 µg/mL (Bacillus mycoides; read-out: Inhibition zone) of the same molecule?
A: 24 mm

Q: What about the zone of inhibition at 1250 µg/mL (Bacillus mycoides; read-out: Inhibition zone) of the same molecule?
A: 26 mm

Q: And the zone of inhibition at 2500 µg/mL (Bacillus mycoides; read-out: Inhibition zone)?
A: 27 mm

Q: And the zone of inhibition at 5000 µg/mL (Bacillus mycoides; read-out: Inhibition zone)?
A: 28 mm

Q: What about the zone of inhibition at 10000 µg/mL (Bacillus mycoides; read-out: Inhibition zone) of the same molecule?
A: 29 mm

Q: What about the MIC (Bacillus mycoides; read-out: Minimum inhibition concentration (MIC)) of the same molecule?
A: 9.75 µg/mL (≈ 27.2 µM)

From paper PMC10579241, “Impact of trifluoromethyl and sulfonyl groups on the biological activity of novel aryl-urea derivatives: synthesis, in-vitro, in-silico and SAR studies” (Scientific Reports, 2023)
